# According to article PMC10969810, “Green Extraction Strategy Using Bio-Based Aqueous Biphasic Systems for Polyphenol Valorization from Grape By-Product” (Foods, 2024):
# Several values for one entry are separate records, joined by “and”; a condition that tells them apart may be missing. Equal values may be shown once. Read-outs that look alike come from different tables or passages of the source.
# Experiments:
# [1] = cited from earlier work
# [2] = design: method as in doi:10.2478/s11696-013-0417-6, doi:10.1016/0016-7037(88)90089-0; details: cited from earlier work
# [3] = Recovery of polyphenols from grape stem extract with [Ch][DHP]/PPG400 ABS; format: physicochemical; details: 40 wt% PPG400 + 25 wt% [Ch][DHP], 25 °C, pH ~6, TLL ~101, ~5 mg extract per g ABS
# Method: Grapes collected from Quinta das Carvalhas, Pinhao (Regiao Demarcada do Douro, Portugal), were first separated into stems, seeds, and skins. All samples were freeze-dried, ground into powder, and stored in a desiccator. Two grams of the grape stem powder was mixed with 100 mL of a water:ethanol mixture (1:1, v:v), followed by stirring for 2 h and sonication for 5 min. The sample was centrifuged at 10,000× g rpm for 15 min, and the pellet was re-extracted. The supernatant was collected, and the solvent was evaporated under vacuum using a rotary evaporator at 40 °C. […]
# The quantification of polyphenols was carried out using HPLC (Knauer, Berlin, Germany), which includes a DAD detector and an Ascentis C18 (SUPELCO), Darmstadt, Germany, column with a particle size of 5 µm and dimensions 250 mm × 4.6 mm. […] Quantification in a complex sample after extraction from the real sample was achieved using a gradient mode, varying the mobile phase from 100% A to 100% B for 30 min.
# Guided by the results from the optimization studies, polyphenols were extracted from grape stem extract with specific conditions in mind based on previously determined extraction parameters. […] The RE for GA towards the [Ch][DHP] phase was 78.64%, and quercetin was not detected in the grape stem extract. […]
# [4] = Partition of polyphenols in cholinium salt/IL + PPG400 + water aqueous biphasic systems; format: physicochemical; details: for increase in RE by increasing the TLL: TLL 56.88 to 101.43, polyphenol content 2.5 g per L of ABS, pH~6, 25 °C
# Method: Considering previously established phase diagrams of ABSs, ternary mixtures within the biphasic region were prepared, containing 20 wt% salt/IL + 50 wt% PPG400 + 30 wt% of H2O +10 μL of polyphenol solution. The polyphenol solutions were prepared in 80 vol% ethanol, with concentrations of circa 2500 mg L^−1 for each compound. […] The selected compositions of ABSs and corresponding TLLs are given in the Supplementary Materials.
# Each ABS was prepared in 1.5 mL microcentrifuge tubes by adding the appropriate amount of constituents to achieve a final weight of 1 g. All systems were vigorously agitated (Reax Top, Heidolph, Schwabach, Germany) and left for 2 h at 25 °C in a thermo-shaker incubator (ALEMADR-MSC, Colo Lab Experts, Novo Mesto, Slovenia). Following 5 min of centrifugation at 5000× g rpm (LLG-uniCFUGE 5, Meckenheim, Germany), the phases were carefully separated, and their weights and volumes were measured. After appropriate dilution and filtration using syringe filters (0.45 μm), the contents of polyphenols in the phases were quantified by high-performance liquid chromatography (HPLC), as described in Section 2.5.
# The logarithmic distribution coefficients (logD) of the polyphenols were calculated as the ratio of the equilibrium concentration of each polyphenol in the PPG400-rich and IL/salt-rich phases, as follows:(1) logD=log [Polyphenol]PPG400-phase/[Polyphenol]IL/salt-phase.
# The selectivities (S) with respect to gallic acid were calculated according to the following equation:(4) SGA/Polyphenol=DGA/DPolyphenol where the subscript “Polyphenol” stands for resveratrol or quercetin.
# The quantification of polyphenols was carried out using HPLC (Knauer, Berlin, Germany), which includes a DAD detector and an Ascentis C18 (SUPELCO), Darmstadt, Germany, column with a particle size of 5 µm and dimensions 250 mm × 4.6 mm. Chromatographic separation of the target polyphenols occurred at a constant flow rate of 1 mL min^−1, the injection volume for all samples was 20 μL, and the temperature of the column was fixed at 45 °C, with 10% acetonitrile (v/v) as mobile phase A and pure acetonitrile as mobile phase B. For partition studies, isocratic conditions were used for the determination of each compound (A:B = 60:40). Quantification in a complex sample after extraction from the real sample was achieved using a gradient mode, varying the mobile phase from 100% A to 100% B for 30 min.
# [5] = Solubility determination (UV spectroscopy of saturated solutions); format: physicochemical; details: thermodynamic from solid
# Method: Quantification was carried out using calibration curves (R^2 > 0.99 in all cases) for each analyzed compound within the concentration range of 2.5 to 50 mg L^-1.
# [6] = design: method as in doi:10.1016/j.afres.2023.100381; details: ABSs of [Ch]Cl and different surfactants, rice husk hydrolysate; cited from earlier work
# [7] = [Ch][DHP]/PPG400 ABS, tie line ~101, lowest phase volume ratio (0.20), 25 °C
compound,measurement,setting,value
"O=C(O)c1cc(O)c(O)c(O)c1 [GA, gallic acid]",solubility in water,[1]; no reference and method not given,14.38 mg/mL
same,degradation,[2]; at 100 °C,30%
same,temperature from which degradation begins,[2],60 °C
same,recovery efficiency from grape stem extract towards the [Ch][DHP] phase,[3],78.64%
same,recovery efficiency from grape stem extract towards the [Ch][DHP] phase,[3]; listed as gallic acid,78%
same,recovery efficiency (RE) toward the IL-rich phase,"[4]; [Ch][DHP]-based ABS, 20 wt% IL + 50 wt% PPG400, TLL 101.43, volume ratio 0.50, 25 °C",92.31 ± 2.31% and 90%
same,increase in RE by increasing the TLL,[4]; [Ch][DHP]/PPG400 ABS,~2%
same,recovery efficiency (RE) toward the IL-rich phase,[4]; [7],88.7 ± 3.91%
same,solubility at 12 h,"[5]; [Ch][DHP]/water 50:50, aqueous with cosolvent or surfactant or cyclodextrin, around 50 wt% [Ch][DHP] in water, 25 °C, read-out: maximal solubility in the [Ch][DHP]-rich phase",140 mg/mL
"O=c1c(O)c(-c2ccc(O)c(O)c2)oc2cc(O)cc(O)c12 [QC, quercetin]",selectivity SGA/QC (DGA/DQC),"[4]; [Ch][DHP]-based ABS, 25 °C",> 1000
same,increase in RE by increasing the TLL,[4]; [Ch][DHP]/PPG400 ABS,~9%
same,recovery efficiency (RE) toward the PPG-rich phase,[4]; [7],55.70 ± 2.13%
"Oc1ccc(/C=C/c2cc(O)cc(O)c2)cc1 [RSV, trans-resveratrol]",solubility in pure water,[1],0.039 mg/mL
same,increase in RE by increasing the TLL,[4]; [Ch][DHP]/PPG400 ABS,circa 7%
same,solubility at 12 h,"[5]; PPG400/water 80:20 (v/v), aqueous with cosolvent or surfactant or cyclodextrin, PPG400/water 80:20, 25 °C, not the maximum solubility, read-out: solubility in PPG/water system matching the PPG phase",≥ 100 mg/mL
COc1cc(/C=C/C(=O)O)ccc1O [ferulic acid],yield in the surfactant-rich phase,[6],over 90%
O=C(O)/C=C/c1ccc(O)cc1 [p-coumaric acid],yield in the surfactant-rich phase,[6],over 90%
